Measurements from ChEMBL document CHEMBL1126296, “Orally active aldose reductase inhibitors: indazoleacetic, oxopyridazineacetic, and oxopyridopyridazineacetic acid derivatives” (J Med Chem, 1992).
Activity calls are given as the source filed them. No cut-off for these calls is given here.

Experiments:
[1] = target: Aldo-keto reductase family 1 member B1 (Homo sapiens, UniProt P15121); test: Inhibitory activity against aldose reductase isolated from human placenta
Rattus norvegicus [2] = test: In vivo inhibition of sorbitol accumulation in sciatic nerve and lens of diabetic rat at a dose of 25 mg/kg.; format: functional
Rattus norvegicus [3] = test: In vivo inhibition of sorbitol accumulation in sciatic nerve and lens of diabetic rat at a dose of 10 mg/kg.; format: functional
Rattus norvegicus [4] = test: In vivo inhibition of sorbitol accumulation in sciatic nerve and lens of diabetic rat at a dose of 10 mg/kg; NS=not significant; format: functional, organism-based; set-up: dose 10 mg/kg
Rattus norvegicus [5] = test: In vivo inhibition of sorbitol accumulation in sciatic nerve and lens of diabetic rat at a dose of 25 mg/kg; NS=not significant; format: functional, organism-based; set-up: dose 25 mg/kg
Rattus norvegicus [6] = test: In vivo inhibition of sorbitol accumulation in sciatic nerve and lens of diabetic rat at a dose of 100 mg/kg.; format: functional

| IC50 [1] [nM] | Compound | inhibition in vivo at 25 mg/kg (Rattus norvegicus [2]) [%] | also measured |
| --- | --- | --- | --- |
| 5.2 | O=C(O)Cc1nn(Cc2nc3cc(C(F)(F)F)ccc3s2)c(=O)c2c1CCCC2 | 89 | inhibition in vivo at 10 mg/kg (Rattus norvegicus [3]): 61% |
| 290 | Cc1c(CC(=O)O)nn(Cc2ccc(Br)cc2F)c(=O)c1C | – | inhibition (Rattus norvegicus [4]): inactive |
| 41 | O=C(O)Cc1nn(Cc2nc3cc(C(F)(F)F)ccc3s2)c(=O)c2cccnc12 | 74 | – |
| 33 | O=C(O)Cc1nn(Cc2nc3cc(C(F)(F)F)ccc3s2)c2ccccc12 | 59 | – |
| < 10 | O=C(O)Cc1ccc(=O)n(Cc2nc3cc(F)cc(F)c3s2)n1 | 32 | – |
| 26 | O=C(O)Cc1nn(Cc2nc3cc(F)cc(F)c3s2)c(=O)c2cccnc12 | 68 | – |
| 35 | O=C(O)Cc1nn(Cc2nc3cc(C(F)(F)F)ccc3s2)c2ccc(Cl)cc12 | – | inhibition (Rattus norvegicus [5]): inactive |
| 18 | Cc1cc(=O)n(Cc2nc3cc(C(F)(F)F)ccc3s2)nc1CC(=O)O | – | inhibition (Rattus norvegicus [5]): inactive |
| – | O=C(O)Cc1nn(Cc2nc3ccccc3s2)c(=O)c2ccccc12 | 67 | – |
| 2.1 | O=C(O)Cc1nn(Cc2nc3cc(C(F)(F)F)ccc3s2)c(=O)c2ncccc12 | – | inhibition (Rattus norvegicus [4]): inactive |
| 16 | Cc1c(CC(=O)O)nn(Cc2nc3cc(C(F)(F)F)ccc3s2)c(=O)c1C | 81 | – |
| < 10 | O=C(O)Cc1nn(Cc2nc3cc(F)ccc3s2)c(=O)c2cccnc12 | 64 | – |
| 760 | O=C(O)Cc1nn(Cc2ccc(Br)cc2F)c(=O)c2ncccc12 | – | inhibition (Rattus norvegicus [5]): inactive |
| – | O=C(O)Cc1nn(Cc2nc3cc(C(F)(F)F)ccc3s2)c(=O)c2ccccc12 [ZOPOLRESTAT] | – | inhibition in vivo at 10 mg/kg (Rattus norvegicus [3]): 80% |
| 680 | O=C(O)Cc1nn(Cc2nc3ccccc3s2)c2ccccc12 | 52 | inhibition in vivo at 100 mg/kg (Rattus norvegicus [6]): 77% |
| 420 | O=C(O)Cc1nn(Cc2ccc(Br)cc2F)c(=O)c2cc3ccccc3cc12 | – | – |
| 30 | O=C(O)Cc1nn(Cc2nc3cc(F)cc(F)c3s2)c2ccccc12 | 61 | – |
| 340 | O=C(O)Cc1ccc(=O)n(Cc2nc3cc(C(F)(F)F)ccc3s2)n1 | – | inhibition (Rattus norvegicus [5]): inactive |
| 58 | O=C(O)Cc1nn(Cc2nc3ccccc3s2)c2ccc(Cl)cc12 | – | inhibition (Rattus norvegicus [4]): inactive |
| 5 | Cc1c(CC(=O)O)nn(Cc2nc3cc(F)cc(F)c3s2)c(=O)c1C | – | inhibition in vivo at 10 mg/kg (Rattus norvegicus [3]): 76% |
| 100 | O=C(O)Cc1nn(Cc2nc3ccccc3o2)c2ccc(Cl)cc12 | – | – |
| 32 | O=C(O)Cc1nn(Cc2ccc(Br)cc2F)c(=O)c2c1CCCC2 | 87 | – |
| 65 | O=C(O)Cc1nn(Cc2nc3cc(Br)ccc3s2)c2ccc(Cl)cc12 | 56 | – |
| 110 | O=C(O)Cc1nn(Cc2nc3cc(F)cc(F)c3s2)c2ccc(Cl)cc12 | 69 | – |
| 46 | O=C(O)Cc1nn(Cc2nc3ccccc3s2)c(=O)c2cc3ccccc3cc12 | – | inhibition in vivo at 100 mg/kg (Rattus norvegicus [6]): 48% |
| 4.6 | O=C(O)Cc1nn(Cc2nc3cc(F)ccc3s2)c2ccc(Cl)cc12 | 34 | – |
| 4 | O=C(O)Cc1nn(Cc2nc3cc(F)cc(F)c3s2)c(=O)c2c1CCCC2 | – | – |
| 3.3 | Cc1c(CC(=O)O)nn(Cc2nc(-c3cccc(F)c3F)no2)c(=O)c1C | – | inhibition in vivo at 10 mg/kg (Rattus norvegicus [3]): 26% |
| 6200 | O=C(O)Cc1nn(Cc2ccc(Br)cc2F)c2ccccc12 | – | – |
